From the SangsterLogP compilation come the findings set out here.

Molecules are shown by their SMILES.

For `CCO/C=C/C(=O)N1Cc2cc(OCCc3coc(/C=C/CCCC(C)C)n3)ccc2CC1C(=O)O` (configuration not stated), the logP was 3.56. `C/C=C/C=C/C(=O)N1Cc2cc(OCCc3nc(/C=C/C(C)CCC)oc3C)ccc2C[C@H]1C(=O)O` (some centres not stated) had a log partition coefficient (logP) of 3.84. The compound `Cc1oc(/C=C/CCC(C)C)nc1CCOc1ccc2c(c1)CN(C(=O)/C=C/c1ccco1)[C@H](C(=O)O)C2` had a logP of 3.76. The logP values of the last two compounds are within 0.2 log units of each other. In turn, `CCOC/C=C/C(=O)N1Cc2cc(OCCc3coc(/C=C/CCCC(C)C)n3)ccc2CC1C(=O)O` (configuration not stated) had a log partition coefficient (logP) of 3.52. The figure for `C/C=C/C=C/C(=O)N1Cc2cc(OCCc3nc(CCCCC(C)C)oc3C)ccc2C[C@H]1C(=O)O` is 3.79; for `Cc1oc(/C=C/CCC(C)C)nc1CCOc1ccc2c(c1)CN(C(=O)/C=C/C=C/CO)C(C(=O)O)C2` (configuration not stated) it is 3.09; for `C/C=C/C=C/C(=O)N1Cc2cc(OCCc3nc(/C(C)=C/CC)oc3C)ccc2C[C@H]1C(=O)O` it is 2.88. In the case of `CC(C)CCC/C=C/c1nc(CCOc2ccc3c(c2)CN(C(=O)/C=C/C2CC2)C(C(=O)O)C3)co1` (configuration not stated), the log partition coefficient (logP) stood at 3.69.

On to `C/C=C/C=C/C(=O)N1Cc2cc(OCCc3nc(/C=C/C(CC)CC)oc3C)ccc2C[C@H]1C(=O)O`, for which the logP is 3.68. `CC(C)=C/C=C/C(=O)N1Cc2cc(OCCc3coc(/C=C/CCCC(C)C)n3)ccc2CC1C(=O)O` (configuration not stated) gave a logP of 4.09. Turning to `CCC/C=C/C(=O)N1Cc2cc(OCCc3coc(/C=C/CCCC(C)C)n3)ccc2CC1C(=O)O` (configuration not stated), the logP was 4.04. In turn, `C=CCCC(=O)N1Cc2cc(OCCc3nc(/C=C/CCC(C)C)oc3C)ccc2C[C@H]1C(=O)O` yielded a logP of 3.76. Compound `CCOCCC(=O)N1Cc2cc(OCCc3coc(/C=C/CCCC(C)C)n3)ccc2CC1C(=O)O` (configuration not stated) had a lipophilicity (logP) of 3.48. Next, `C/C=C/C=C/C(=O)N1Cc2cc(OCCc3nc(/C=C/CCC(C)C)oc3C)ccc2C[C@H]1C(=O)O`: 3.81.

For the compound `CC(C)CCC/C=C/c1nc(CCOc2ccc3c(c2)CN(C(=O)/C=C/c2ccco2)C(C(=O)O)C3)co1` (configuration not stated), the logP was found to be 3.76. This logP and that of the compound before are within 0.2 log units of each other. As for `C/C=C/C=C/C(=O)N1Cc2cc(OCCc3nc(/C=C/CCCC(C)C)oc3C)ccc2CC1C(=O)O` (configuration not stated), the logP stood at 4.1. Take `C/C=C/C=C/C(=O)N1Cc2cc(OCCc3nc(/C=C/CC(C)(C)C)oc3C)ccc2C[C@H]1C(=O)O`: the lipophilicity (logP) is 3.59. The compound `C/C=C/C=C/C(=O)N1Cc2cc(OCCc3nc(C=CCC(C)C)oc3C)ccc2CC1C(=O)O` (configuration not stated) registered a logP of 3.23. The figure for `C/C=C/C=C/C(=O)N1Cc2cc(OCCc3nc(/C=C/C(C)(C)C)oc3C)ccc2C[C@H]1C(=O)O` is 3.1.

Turning to `C/C=C/C=C/C(=O)N1Cc2cc(OCCc3nc(/C=C/C(C)C)oc3C)ccc2C[C@H]1C(=O)O`, the logP was determined as 2.77. In turn, `C/C=C/C=C/C(=O)N1Cc2cc(OCCc3nc(/C=C/C(C)(C)CC)oc3C)ccc2C[C@H]1C(=O)O` returned a log partition coefficient (logP) of 3.52. The figure for `CCCCCC(=O)N1Cc2cc(OCCc3coc(/C=C/CCCC(C)C)n3)ccc2CC1C(=O)O` (configuration not stated) is 4.34; for `C=CCCCC(=O)N1Cc2cc(OCCc3coc(/C=C/CCCC(C)C)n3)ccc2CC1C(=O)O` (configuration not stated) it is 4.03. Next, `CC(C)CCC/C=C/c1nc(CCOc2ccc3c(c2)CN(C(=O)/C=C/c2cccs2)C(C(=O)O)C3)co1` (configuration not stated): 3.95; `C/C=C/C=C/C(=O)N1Cc2cc(OCCc3nc(/C(C)=C/CCC(C)C)oc3C)ccc2C[C@H]1C(=O)O`: 4.29; `CCC(O)/C=C/C(=O)N1Cc2cc(OCCc3coc(/C=C/CCCC(C)C)n3)ccc2CC1C(=O)O` (configuration not stated): 3.33. As to `C/C=C/C=C/C(=O)N1Cc2cc(OCCc3nc(/C(=C/C)CC)oc3C)ccc2C[C@H]1C(=O)O`, the lipophilicity (logP) came out at 2.75.

Usually logP stands for a log measure of how a compound divides between an organic and an aqueous phase. Read a high logP as a more lipophilic compound.
